Assay results as given in a melting point compilation (Tetko et al.; mined from patent text by program, amines drawn as free bases though some values may be those of a salt).

Work on `CC(c1ccc(-c2ccc(OCc3nc4ccccc4s3)cc2)c(F)c1)N(O)C(N)=O` (configuration not stated) yielded a melting point of 185 to 186 °C. `Oc1ccc(C=Cc2cccc(O)c2)cc1` showed a melting point of 213 to 214 °C. Molecule `O=[N+]([O-])c1ccccc1OC1OC(COP(=O)(O)O)C(O)C(O)C1O` (configuration not stated) has a melting point of 181 to 183 °C. In the case of `OC12CC3CC(C1)C(NC(c1ccccc1)(c1ccccc1)c1ccccc1)C(C3)C2` (configuration not stated), the melting point is reported as 166 to 170 °C. Molecule `NS(=O)(=O)c1ccc(-c2noc(-c3cnn4c(C(F)(F)F)cc(-c5cccc(C(F)(F)F)c5)nc34)n2)cc1` has a melting point of 300 °C. `Nc1ccc(S(=O)(=O)Nc2cc(Br)nc(Br)c2)cc1` gave a melting point of 220 to 222 °C. In the case of `CCCc1c(C(=O)C(C)C)c2ccc(C(=O)O)cc2n1Cc1ccccc1[N+](=O)[O-]`, the melting point is reported as 214 to 215 °C. With `CC(C)(C)c1cc(NS(C)(=O)=O)cc(C(C)(C)C)c1O` the melting point was 149 to 151 °C. `Cc1c(NC(=O)CC(C)(C)C)c(C)c2c(c1C(O)CO)OCC2c1ccc(C(C)C)cc1` (configuration not stated) showed a melting point of 159 to 161 °C. Molecule `O=C(CC1CCN(C(=O)OCc2ccccc2)CC1)c1c[nH]c2ccccc12` has a melting point of 122 °C. With `CCc1cccc2c1CCNC2=O` the melting point was 123 to 126 °C. With `CCCn1nc(-c2ccc(O)cc2)c2cccc(-c3ccc(F)cc3)c21` the melting point was 110 to 111 °C. Molecule `O=[N+]([O-])c1cccc(S(=O)(=O)NCCc2ccncc2)c1` has a melting point of 138 °C. `COc1cc(C=CC(=O)c2ccccc2O)cc(OC)c1` showed a melting point of 110 to 111 °C. `COC(=O)C(O)(c1cc(F)cc(F)c1)c1cc(F)cc(F)c1` showed a melting point of 113 to 114 °C. Molecule `CC(C)c1cc(C(C)C)c(CC(=O)NS(=O)(=O)Oc2c(C(C)C)cc(NS(=O)(=O)c3cccc4c(N(C)C)cccc34)cc2C(C)C)c(C(C)C)c1` has a melting point of 103 to 105 °C. In the case of `CCCCOc1cc(C(=O)O)n(Cc2ccc(C(F)(F)F)cc2Cl)n1`, the melting point is reported as 158 to 160 °C. `CC1(C)CC2(CCNCC2)C(=O)O1` showed a melting point greater than 280 °C. For `Cc1c(CCCCCC(=O)O)cccc1C(=O)c1ccc(Cl)cc1`, the melting point was 82 °C. With `COc1cc(CC(COC(C)=O)NC(=O)c2ccccc2)cc2c1OC(C)(C)C2` (configuration not stated) the melting point was 141 to 142 °C. In the case of `COc1ccc(C(c2ccc(OC)cc2)(c2ccc(OC)cc2)N2CCCCC2)cc1`, the melting point is reported as 73 to 75 °C. In the case of `CCCCOC(=O)c1ccc(Nc2nc(Nc3ccc(C(=O)OCCCC)cc3)nc(-c3cccn3Cc3ccccc3)n2)cc1`, the melting point is reported as 173 to 174 °C. For `CCC1(c2ccccc2)C(=O)N(CCO)C(=O)N(CCO)C1=O`, the melting point was 107 to 109 °C. Work on `COc1cc(C(=N)N)ccc1O` yielded a melting point greater than 240 °C. Work on `CN1CCN(C2=NC(=O)C(=Cc3cccc(-c4cc(F)c(O)c(C56CC7CC(CC(C7)C5)C6)c4)c3)S2)CC1` yielded a melting point of 226 to 228 °C. Molecule `Cc1ccccc1CNc1nc(Cl)nc2ccccc12` has a melting point of 215 to 217 °C. Molecule `COc1cc(C(=O)N2CCN(C(=O)OC(C)(C)C)C(CO)C2)cc(OC)c1OC` (configuration not stated) has a melting point of 119 to 120 °C. In the case of `CC(C)n1c(=O)cc(C(F)(F)F)[nH]c1=O`, the melting point is reported as 127 to 129 °C. `COCCc1nc2c(N)nc3ccccc3c2n1CCOCCNC(=O)c1ccc(C(=O)NCCOCCn2c(CCOC)nc3c(N)nc4ccccc4c32)cc1` gave a melting point of 229 to 233 °C. With `CCNC(=O)c1cc(C(F)(F)F)ccc1[Si](C)(C)C` the melting point was 101 to 102 °C. With `CCCOc1ccccc1-c1nc2nnc(N)nc2c(=O)[nH]1` the melting point was 322 to 325 °C. Work on `COc1ccc(CCc2oc3cccc(OC(C)=O)c3c2C)cc1` yielded a melting point of 66 to 69 °C. `COc1cccnc1CCCCNc1nc(=O)c(C(O)c2ccc(C)nc2)c[nH]1` (configuration not stated) gave a melting point of 82 °C. Molecule `N#CN=C(Nc1ccc(C#N)cc1O)Nc1cccc(Cl)c1Cl` has a melting point of 155 to 156 °C. `CC(NC(=O)OCc1ccccc1)P(C)(=O)O` (configuration not stated) showed a melting point of 118 to 119 °C. In the case of `CCOc1cc(N)ccc1-c1ccc(-c2ccc(N)cc2OCC)o1`, the melting point is reported as 192 to 193 °C. In the case of `Cc1c(C)c2c(c(C)c1O)C(=O)CC(C)(COc1ccc([N+](=O)[O-])cc1)O2` (configuration not stated), the melting point is reported as 199 to 204 °C.
